Assay results from US4918012A (Kyowa Hakko Kogyo Co., Ltd., priority 1986, dated 1990).

What was measured:
[1] = tested on: L-carnitinamide hydrolase; experiment: Inhibitors of L-carnitinamide hydrolase (metal ions, EDTA, 2-mercaptoethanol); assay type: biochemical, Pseudomonas sp.
Text: The determination of the activity of carnitinamide hydrolase can be carried out by measuring the amount of carnitine generated by, for example, Pearson's method (D. J. Pearson et al., Method in Enzymology, Vol. 14, 612 (1969)). When there is no inhibitory substances present, the determination of the activity of the enzyme can also be carried out by measuring the amount of ammonia generated by the reaction.

[2] = tested on: strain CA28-50A; experiment: Effect of compound added to growth medium on carnitinamide hydrolase formation (Example 9); assay type: cell-based, Pseudomonas sp. CA28-50A; conditions: 26° C.; for Conversion Rate of L-carnitinamide into L-carnitine: cells reacted with 10% DL-carnitinamide, 96 hours; for Growth (optical density at 660, 1.00 cm, 20 times dilution): strain CA28-50A, 3 days
Procedure: In a medium consisting of 1% glucose, 0.5% peptone, 0.75% K2 HPO4, 0.25% KH2 PO4, 0.01% MgSO4.7H2 O, 0.001% FeSO4.7H2 O and one of the compounds shown in Table 6 below and the balance water (pH 7.2) was inoculated the strain CA28-50A and shake cultured at 26° C. for 3 days. Cells collected from the culture broth by centrifugation were suspended in a reaction solution containing 10% DL-carnitinamide in the same density as that in the medium for growth culture, and the resulting suspension was allowed to stand at 26° C. for 96 hours for the reaction.

| Structure (SMILES) | Inhibition of the enzyme ([1]; at 10 mM) | Inhibition of the enzyme ([1]; concentration of 1 mM) | also measured |
| --- | --- | --- | --- |
| [Ni+2] [Ni] | slight inhibition | no inhibition | – |
| O=C(O)CN(CCN(CC(=O)O)CC(=O)O)CC(=O)O [EDTA] | do not show inhibition | do not show inhibition | – |
| [Zn+2] [Zn] | – | no inhibition | – |
| [Mg+2] [Mg] | – | no inhibition | – |
| [Co+2] [Co] | – | no inhibition | – |
| C[N+](C)(C)CC(O)CC(=O)[O-] (racemic) [DL-Carnitine] | – | – | Conversion Rate of L-carnitinamide into L-carnitine ([2]; compound 0.5% in growth medium): 90.0%; Growth (optical density at 660, 1.00 cm, 20 times dilution) ([2]; compound 0.5% in growth medium): 0.27 |
| Cl.N [NH4 Cl] | – | – | Conversion Rate of L-carnitinamide into L-carnitine ([2]; compound 0.1% in growth medium): 2.9%; Growth (optical density at 660, 1.00 cm, 20 times dilution) ([2]; compound 0.1% in growth medium): 0.23 |
| [Ag+] [Ag ion] | remarkable inhibition | slight inhibition | – |
| [Mn+2] [Mn] | – | no inhibition | – |
| C[N+](C)(C)CCCC(=O)[O-] [γ-Butyrobetaine] | – | – | Conversion Rate of L-carnitinamide into L-carnitine ([2]; compound 0.5% in growth medium): 12.3%; Growth (optical density at 660, 1.00 cm, 20 times dilution) ([2]; compound 0.5% in growth medium): 0.26 |
| C[N+](C)(C)CC(O)CC(N)=O (racemic) [DL-Carnitinamide] | – | – | Conversion Rate of L-carnitinamide into L-carnitine ([2]; compound 0.5% in growth medium): 88.7%; Growth (optical density at 660, 1.00 cm, 20 times dilution) ([2]; compound 0.5% in growth medium): 0.27 |
| OCCS [2-mercaptoethanol] | do not show inhibition | do not show inhibition | – |
